Measured values as given in the supplement of paper PMC5579334.
± gives the standard deviation of the averaged measurements.

What was measured:
HS-PSS [1] = assay: drug sensitivity score (DSS, CellTiter-Glo viability, 72 h) (DSS (dimensionless)); higher = more sensitive; extreme values may be limits of the assay
Procedure, shortened: (§1)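 MPNST cell lines and primary human Schwann cells (750–1000 cells per well) went into 384-well plates preprinted with each compound at five concentrations in 10-fold steps. Plates were incubated 72 h at 37 °C, 5% CO2. Viability was read as CellTiter-Glo ATP luminescence, scaled between vehicle and positive-control wells, with duplicates averaged where present. Percent inhibition is at the top concentration; drug sensitivity score and relative IC50 (censored at top concentration) come from four-parameter logistic fits.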

HS-Sch-2 [2] = assay: as above
Procedure, shortened: as §1

[3] = test system: HSC1 (primary human Schwann cells); assay: as above
Procedure, shortened: as §1

[4] = test system: HSC2 (primary human Schwann cells); assay: as above
Procedure, shortened: as §1

S1507-2 [5] = assay: as above
Procedure, shortened: as §1

S462 [6] = assay: as above
Procedure, shortened: as §1

ST8814 [7] = assay: as above
Procedure, shortened: as §1

STS26T [8] = assay: as above
Procedure, shortened: as §1

YST-1 [9] = assay: as above
Procedure, shortened: as §1

HS-PSS [10] = assay: drug sensitivity score (DSS, CellTox-Green cytotoxicity, 72 h) (DSS (dimensionless)); higher = more cytotoxic; extreme values may be limits of the assay
Procedure, shortened: (§2)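 MPNST cell lines and primary human Schwann cells were incubated 72 h at 37 °C in 384-well plates holding five 10-fold compound dilutions. CellTox-Green was added before seeding at a final 1:1000 dilution and reported fluorescence from DNA released by disrupted cells. Signals were scaled to vehicle and positive-control wells, and cultures failing plate quality control were dropped. Drug sensitivity score and relative IC50 come from four-parameter logistic fits, with IC50 censored at the top concentration.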

[11] = test system: HSC1 (primary human Schwann cells); assay: as above
Procedure, shortened: as §2

[12] = test system: HSC2 (primary human Schwann cells); assay: as above
Procedure, shortened: as §2

S1507-2 [13] = assay: as above
Procedure, shortened: as §2

ST8814 [14] = assay: as above
Procedure, shortened: as §2

STS26T [15] = assay: as above
Procedure, shortened: as §2

HS-PSS [16] = assay: % inhibition of CellTiter-Glo viability at highest tested concentration (72 h), relative to DMSO and benzethonium chloride controls; higher = more inhibition
Procedure, shortened: as §1

HS-Sch-2 [17] = assay: as above
Procedure, shortened: as §1

[18] = test system: HSC1 (primary human Schwann cells); assay: as above
Procedure, shortened: as §1

[19] = test system: HSC2 (primary human Schwann cells); assay: as above
Procedure, shortened: as §1

S1507-2 [20] = assay: as above
Procedure, shortened: as §1

S462 [21] = assay: as above
Procedure, shortened: as §1

ST8814 [22] = assay: as above
Procedure, shortened: as §1

STS26T [23] = assay: as above
Procedure, shortened: as §1

YST-1 [24] = assay: as above
Procedure, shortened: as §1

Row | Compound | drug sensitivity score (HS-PSS [1]) | drug sensitivity score (HS-Sch-2 [2]) | drug sensitivity score [3] | drug sensitivity score [4] | drug sensitivity score (S1507-2 [5]) | drug sensitivity score (S462 [6]) | drug sensitivity score (ST8814 [7]) | drug sensitivity score (STS26T [8]) | drug sensitivity score (YST-1 [9]) | drug sensitivity score (HS-PSS [10]) | drug sensitivity score [11] | drug sensitivity score [12] | drug sensitivity score (S1507-2 [13]) | drug sensitivity score (ST8814 [14]) | drug sensitivity score (STS26T [15]) | % inhibition (HS-PSS [16]) [%] | % inhibition (HS-Sch-2 [17]) [%] | % inhibition [18] [%] | % inhibition [19] [%] | % inhibition (S1507-2 [20]) [%] | % inhibition (S462 [21]) [%] | % inhibition (ST8814 [22]) [%] | % inhibition (STS26T [23]) [%] | % inhibition (YST-1 [24]) [%]
1 | C=CCn1c(=O)c2cnc(Nc3ccc(N4CCN(C)CC4)cc3)nc2n1-c1cccc(C(C)(C)O)n1 [MK1775] (max concentration tested 10000 nM) | 6.59 | 23.8 | 14.4 | 17 | 16.3 ± 1.6 | 24.5 ± 0.65 | 15.8 | 16.4 | 14.7 | 0.11 | 5.21 | 9.17 | 16.1 ± 1.9 | 14.6 | 20.3 | 49.6 | 88.4 | 67.6 | 85.9 | 83.3 ± 2 | 107.2 ± 0.38 | 89.8 | 96.8 | 82.5
2 | CC/C(=C(\c1ccccc1)c1ccc(OCCN(C)C)cc1)c1ccccc1 [Tamoxifen] (max concentration tested 10000 nM) | 2.37 | 4.43 | 0.133 | 2.59 | 1.29 ± 0.79 | 0.757 ± 0.86 | 3.39 | 0.653 | 1.24 | 0 | 0 | 0 | 3.75 ± 4.3 | 6.84 | 0.396 | 55.4 | 61.6 | 14.8 | 52.1 | 35.2 ± 12 | 24.9 ± 13 | 65.2 | 22 | 29.6
3 | O=C(Nc1ccncc1)C(=O)c1cn(Cc2ccc(Cl)cc2)c2ccccc12 [Indibulin] (max concentration tested 10000 nM) | 2.56 | 10.5 | 11.2 | 10.5 | 15 ± 3.3 | 16.5 ± 0.54 | 14.4 | 20.1 | 10.2 | 0 | 5.82 | 7.54 | 10.8 ± 3.9 | 12.6 | 21.5 | 24.1 | 83.6 | 67.6 | 78.1 | 80.5 ± 4.1 | 93.04 ± 0.44 | 74.8 | 93 | 66.2
4 | COc1cc2ncnc(Nc3ccc(F)c(Cl)c3)c2cc1OCCCN1CCOCC1 [Gefitinib] (max concentration tested 10000 nM) | 5.27 | 4.94 | 2.58 | 3.41 | 2.3 ± 1.1 | 1.43 ± 0.69 | 3.34 | 2.37 | 5.06 | 0 | 0 | 0 | 2.49 ± 3.5 | 5.95 | 0.896 | 61.4 | 60.2 | 46.2 | 54.7 | 49.1 ± 12 | 39.9 ± 12 | 68.4 | 53.6 | 46.2
5 | O=C(Cc1ccc(-c2ccc(OCCN3CCOCC3)cc2)cn1)NCc1ccccc1 [KX2-391] (max concentration tested 10000 nM) | 15.7 | 28.3 | 21.4 | 22.7 | 22.6 ± 0.24 | 28.72 ± 0.17 | 25.2 | 29.4 | 24 | 0 | 11.4 | 13.8 | 18.5 ± 2.1 | 30.1 | 32.1 | 76.6 | 93.2 | 75.7 | 86.6 | 75.8 ± 1.3 | 94.784 ± 0.091 | 83.5 | 92.4 | 80.7
6 | COc1cc(F)c(F)c(Nc2ccc(I)cc2F)c1NS(=O)(=O)C1(C[C@H](O)CO)CC1 [Refametinib] (max concentration tested 10000 nM) | 5.39 | 6.81 | 8.11 | 10.5 | 13.8 ± 1.3 | 14.9 ± 1.8 | 14.8 | 8.43 | 0.24 | 0.98 | 0 | 0.276 | 11.1 ± 3.6 | 8.62 | 1.17 | 63.2 | 75.5 | 69.2 | 69 | 86.7 ± 4.6 | 94.83 ± 0.55 | 99.1 | 53 | 17.5
7 | Sc1ncnc2nc[nH]c12 [Mercaptopurine] (max concentration tested 10000 nM) | 1.06 | 7.89 | 0 | 0 | 0 | 5.81 ± 1.6 | 10.2 | 7.5 | 0.53 | 0 | 0 | 0 | 0 | 0 | 0.135 | 18.8 | 59.9 | -2.23 | 3.85 | 7.52 ± 1.2 | 62.5 ± 20 | 43.7 | 74.5 | 13.2
8 | CC(=O)OC[C@H]1O[C@@H]([S-])[C@H](OC(C)=O)[C@@H](OC(C)=O)[C@@H]1OC(C)=O.CCP(CC)CC.[Au+] [Auranofin] (max concentration tested 2500 nM) | 4.86 | 9.71 | 8.86 | 8.02 | 1.36 ± 1 | 8.14 ± 2 | 3.73 | 5.55 | 5.04 | 1.15 | 7.83 | 7.25 | 0.0037 ± 0.0052 | 0.171 | 3.5 | 75.4 | 99.9 | 94.8 | 95.2 | 25.1 ± 9.3 | 94.62 ± 0.92 | 66.9 | 79.9 | 91.7
9 | CN1CCN(c2nc(C3=C(c4c[nH]c5ccccc45)C(=O)NC3=O)c3ccccc3n2)CC1 [Sotrastaurin] (max concentration tested 10000 nM) | 0 | 0 | 0 | 0 | 0.00765 ± 0.011 | 0.0588 ± 0.083 | 0.337 | 0 | 0.45 | 0 | 0 | 0 | 0 | 0 | 0 | 3.47 | 5.75 | -32.7 | -36.1 | 6.26 ± 6.6 | 11.8 ± 2 | 7.08 | -3.71 | 17.7
10 | c1ccc([C@H]2CN3CCSC3=N2)cc1 [Levamisole] (max concentration tested 10000 nM) | 0 | 0 | 0 | 0 | 0 | 0 | 0 | 0 | 0 | 0 | 0 | 0 | 0 | 0 | 0 | -6.64 | -7.3 | -1.64 | 4.5 | -5.81 ± 3.8 | 0.12 ± 8.6 | -0.0528 | 6.7 | 0.96
11 | N#Cc1ccc(COC[C@H]2O[C@@H](n3c(NCc4ccc(Cl)c(Cl)c4)nc4c(N)ncnc43)[C@H](O)[C@@H]2O)cc1 (max concentration tested 10000 nM) | 0.47 | 0 | 5.32 | 8 | 0 | 0.314 ± 0.44 | 0 | 3.06 | 2.63 | 0 | 0 | 0 | 0 | 0 | 0.0103 | 21.7 | 9.8 | 41.6 | 44.2 | 7.48 ± 0.46 | 11.3 ± 7.2 | 8.16 | 30.7 | 28.8
12 | O=C(CCCCCCC(=O)Nc1ccc([C@H]2O[C@@H](CSc3nc(-c4ccccc4)c(-c4ccccc4)o3)C[C@@H](c3ccc(CO)cc3)O2)cc1)NO [Tubacin] (max concentration tested 10000 nM) | 4.53 | 3.9 | 3.73 | 3.24 | 3.73 ± 1 | 3.54 ± 1.2 | 3.74 | 3.13 | 4.41 | 0.31 | 0 | 0 | 0.0428 ± 0.06 | 2.33 | 3.25 | 48 | 63.7 | 70 | 56.6 | 67.9 ± 7.1 | 64.9 ± 20 | 64.2 | 60.2 | 56.1
13 | C[C@H]1C[C@@H]2[C@H]([C@@H](O)C[C@@]3(C)[C@H]2CC[C@]3(O)C(=O)CO)[C@@]2(C)C=CC(=O)C=C12 [Methylprednisolone] (max concentration tested 10000 nM) | 0 | 0.61 | 0 | 0 | 3.26 ± 4.4 | 0 | 4.82 | 0 | 0.96 | 0 | 0 | 0 | 0 | 0 | 0 | 3.22 | 7.62 | 7.99 | 3.94 | 17.3 ± 7 | 4.77 ± 4.3 | 22.4 | 4.35 | 19.3
